# Laboratory results taken from US20180256557A1, “PHARMACEUTICAL COMBINATION COMPRISING (A) THE ALPHA-ISOFORM SPECIFIC PI3K INHIBITOR ALPELISIB (BYL719) AND (B) AN AKT INHIBITOR, PREFERABLY MK-2206, AFURESERTIB OR UPROSERTIB, AND THE USE THEREOF IN THE TREATMENT/PREVENTION OF CANCER” (priority 2015, published 2018).
# Columns and labels:
# Assay type in all cases: cell-based
# [1] = test system: 23 colorectal cancer cell lines; assay: Cell proliferation over the panel of cell lines; details: single agent; for IC50 values over the cell line panel: summary in words of FIG. 1 and Table 2
# Method: (§1) COMPOUNDS A and B were dissolved in 100% DMSO (Sigma, Catalog number D2650) at concentrations of 20 mM and stored at −20° C. until use. Compounds were arrayed in drug master plates (Greiner, Catalog number 788876) and serially diluted 3-fold (7 steps) at 2000× concentration.
# (§2) Colorectal cancer cell lines used for this study were obtained, cultured and processed from commercial vendors ATCC, CellBank Australia, DSMZ, ECACC, HSRRB, and RIKEN (Table 1). All cell line media were supplemented with 10% FBS (HyClone, Catalog number SH30071.03). Media for LIM2405 and LIM2551 was additionally supplemented with 0.6 μg/mL Insulin (SIGMA, Catalog number 19278), 1 μg/mL Hydrocortisone (SIGMA, Catalog number H0135), and 10 μM 1-Thioglycerol (SIGMA, Catalog number M6145).
# (§3) Cell lines were cultured in 37° C. and 5% CO2 incubator and expanded in T-75 flasks. In all cases cells were thawed from frozen stocks, expanded through ≥1 passage using 1:3 dilutions, counted and assessed for viability using a ViCell counter (Beckman-Coulter) prior to plating. To split and expand cell lines, cells were dislodged from flasks using 0.25% Trypsin-EDTA (GIBCO, Catalog number 25200). All cell lines were determined to be free of mycoplasma contamination as determined by a PCR detection methodology performed at Idexx Radil (Columbia, Mo., USA) and correctly identified by detection of a panel of SNPs.
# To test the effect of the combination of COMPOUND A and COMPOUND B on cell proliferation cells were plated in black 384-well microplates with clear bottom (Matrix/Thermo Scientific, Catalog number 4332) in 50 μL media per well at cell densities between 500 and 1250 cells/well (Table 1) and allowed to incubate at 37 degrees, 5% CO2 for 24 h. […] Caspase 3/7 induction was measured as a proxy for apoptosis induced by the treatments. Cells were treated for 72 h to 96 h depending on their doubling time (Table 1), and Caspase 3/7 activation was measured every 24 h by microscopy using an InCell Analyzer 2000 (GE Healthcare) equipped with a 4× objective and FITC excitation/emission filters. […]
# [2] = test system: HCT-116 colorectal cancer cell line; assay: Cell proliferation, cell count by microscopy; details: Homo sapiens; single agent; HCT-116 (KRAS, PIK3CA); 72 h treatment
# Method: as §1, §2, §3
# (§4) To test the effect of the combination of COMPOUND A and COMPOUND B on cell proliferation cells were plated in black 384-well microplates with clear bottom (Matrix/Thermo Scientific, Catalog number 4332) in 50 μL media per well at cell densities between 500 and 1250 cells/well (Table 1) and allowed to incubate at 37 degrees, 5% CO2 for 24 h. After 24 h one 384-well plate per cell line was prepared for cell counting by microscopy (see below) without receiving treatment (=‘baseline’). The other cell plates were treated by transferring 25 nL of the 2000× compound from drug master plates using an ATS acoustic liquid dispenser (ECD Biosystems) and resulting in a final 1× concentration. COMPOUND A was used over a final concentration range of 13 nM-10 μM, and COMPOUND B was used over a final concentration range of 13 nM-10 μM (7 1:3 dilution steps). For the combination of COMPOUND A with COMPOUND B the single agents were combined at a fixed ratio of 1:1 at each dilution resulting in 7 combination treatments. […] After compound addition 50 nL of 2 mM CellEvent Caspase-3/7 Green Detection Reagent (ThermoFisher, Catalog number C10423) were added to one of the three replicates using the HP D300 Digital Dispenser (Tecan). Caspase 3/7 induction was measured as a proxy for apoptosis induced by the treatments. Cells were treated for 72 h to 96 h depending on their doubling time (Table 1), and Caspase 3/7 activation was measured every 24 h by microscopy using an InCell Analyzer 2000 (GE Healthcare) equipped with a 4× objective and FITC excitation/emission filters. At the end of the treatment cells were prepared for cell counting by microscopy. Cells were fixed and permeabilised for 45 minutes in 4% PFA (Electron Microscopy Sciences, Catalog number 15714), 0.12% TX-100 (Electron Microscopy Sciences, Catalog number 22140) in PBS (Boston Bioproducts, Catalog number BM-220). After washing cells three times with PBS their DNA was stained for 30 minutes with Hoechst 33342 (ThermoFisher, Catalog number H3570) at a final concentration of 4 μg/ml. Cells were washed three times with PBS and then plates were heat-sealed using a PlateLoc (Agilent Technologies) with aluminum seals (Agilent Technologies, Catalog number 06644-001) and stored at 4° C. until imaging. All cells per well/treatment were captured in a single image by fluorescence microscopy using an InCell Analyzer 2000 (GE Healthcare) equipped with a 4× objective and DAPI excitation/emission filters. […]
# [3] = test system: LS-180 colorectal cancer cell line; assay: Cell proliferation, cell count by microscopy; details: Homo sapiens, LS180; single agent; LS-180 (KRAS, PIK3CA); 72 h treatment
# Method: as §1, §2, §3, §4
# [4] = test system: LS411N colorectal cancer cell line; assay: Cell proliferation, cell count by microscopy; details: Homo sapiens, LS-411N; single agent; LS411N (BRAF); 72 h treatment
# Method: as §1, §2, §3, §4
# [5] = test system: SW837 colorectal cancer cell line; assay: Cell proliferation, cell count by microscopy; details: Homo sapiens; single agent; SW837 (KRAS); 72 h treatment
# Method: as §1, §2, §3, §4
# [6] = test system: DLD-1 colorectal cancer cell line; assay: Cell proliferation, cell count by microscopy; details: Homo sapiens; single agent; DLD-1 (KRAS, PIK3CA); 72 h treatment
# Method: as §1, §2, §3, §4
# [7] = test system: COLO-320 colorectal cancer cell line; assay: Cell proliferation, cell count by microscopy; details: Homo sapiens; single agent; COLO-320 (no driver mutation listed); 72 h treatment
# Method: as §1, §2, §3, §4
# [8] = test system: CW-2 colorectal cancer cell line; assay: Cell proliferation, cell count by microscopy; details: single agent; CW-2 (no driver mutation listed); 96 h treatment
# Method: as §1, §2, §3, §4
# [9] = test system: COLO-205 colorectal cancer cell line; assay: Cell proliferation, cell count by microscopy; details: Homo sapiens; single agent; COLO-205 (BRAF); 72 h treatment
# Method: as §1, §2, §3, §4
# [10] = test system: SW480 colorectal cancer cell line; assay: Cell proliferation, cell count by microscopy; details: Homo sapiens; single agent; SW480 (KRAS); 72 h treatment
# Method: as §1, §2, §3, §4
# [11] = test system: GP2d colorectal cancer cell line; assay: Cell proliferation, cell count by microscopy; details: single agent; GP2d (KRAS, PIK3CA); 72 h treatment
# Method: as §1, §2, §3, §4
# [12] = test system: NCI-H508 colorectal cancer cell line; assay: Cell proliferation, cell count by microscopy; details: Homo sapiens; single agent; NCI-H508 (PIK3CA); 72 h treatment
# Method: as §1, §2, §3, §4
# [13] = test system: LoVo colorectal cancer cell line; assay: Cell proliferation, cell count by microscopy; details: Homo sapiens; single agent; LoVo (KRAS); 96 h treatment
# Method: as §1, §2, §3, §4
# [14] = test system: COLO-678 colorectal cancer cell line; assay: Cell proliferation, cell count by microscopy; details: Homo sapiens; single agent; COLO-678 (KRAS); 96 h treatment
# Method: as §1, §2, §3, §4
# [15] = test system: HT-29 colorectal cancer cell line; assay: Cell proliferation, cell count by microscopy; details: Homo sapiens; single agent; HT-29 (BRAF, PIK3CA); 72 h treatment
# Method: as §1, §2, §3, §4
# [16] = test system: RKO colorectal cancer cell line; assay: Cell proliferation, cell count by microscopy; details: single agent; RKO (BRAF, PIK3CA); 72 h treatment
# Method: as §1, §2, §3, §4
# [17] = test system: OUMS-23 colorectal cancer cell line; assay: Cell proliferation, cell count by microscopy; details: single agent; OUMS-23 (BRAF); 72 h treatment
# Method: as §1, §2, §3, §4
# [18] = test system: LIM2551 colorectal cancer cell line; assay: Cell proliferation, cell count by microscopy; details: single agent; LIM2551 (BRAF, PIK3CA); 72 h treatment
# Method: as §1, §2, §3, §4
# [19] = test system: SNU-C2A colorectal cancer cell line; assay: Cell proliferation, cell count by microscopy; details: single agent; SNU-C2A (KRAS); 96 h treatment
# Method: as §1, §2, §3, §4
# [20] = test system: SW48 colorectal cancer cell line; assay: Cell proliferation, cell count by microscopy; details: Homo sapiens; single agent; SW48 (MEK1); 96 h treatment
# Method: as §1, §2, §3, §4
# [21] = test system: LIM2405 colorectal cancer cell line; assay: Cell proliferation, cell count by microscopy; details: single agent; LIM2405 (BRAF); 72 h treatment
# Method: as §1, §2, §3, §4
# [22] = test system: SW620 colorectal cancer cell line; assay: Cell proliferation, cell count by microscopy; details: Homo sapiens, SW-620; single agent; SW620 (KRAS); 72 h treatment
# Method: as §1, §2, §3, §4
# [23] = test system: CL-11 colorectal cancer cell line; assay: Cell proliferation, cell count by microscopy; details: single agent; CL-11 (KRAS); 96 h treatment
# Method: as §1, §2, §3, §4
# [24] = test system: HT55 colorectal cancer cell line; assay: Cell proliferation, cell count by microscopy; details: Homo sapiens; single agent; HT55 (no driver mutation listed); 96 h treatment
# Method: as §1, §2, §3, §4
Compound,IC50 values over the cell line panel [1],IC50 [2] [µM],IC50 [3] [µM],IC50 [4] [nM],IC50 [5] [µM],IC50 [6] [µM],IC50 [7] [µM],IC50 [8] [µM],IC50 [9] [µM],IC50 [10] [µM],IC50 [11] [nM],IC50 [12] [nM],IC50 [13] [µM],IC50 [14] [µM],IC50 [15] [nM],IC50 [16] [µM],IC50 [17] [µM],IC50 [18] [nM],IC50 [19] [µM],IC50 [20] [µM],also measured
"Cc1nc(NC(=O)N2CCC[C@H]2C(N)=O)sc1-c1ccnc(C(C)(C)C(F)(F)F)c1 [COMPOUND A, (S)-Pyrrolidine-1,2-dicarboxylic acid 2-amide 1-({4-methyl-5-[2-(2,2,2-trifluoro-1,1-dimethyl-ethyl)-pyridin-4-yl]-thiazol-2-yl}-amide)]",micromolar,6.9,7.1,> 10000,9.3,> 10,7.3,> 10,> 10,> 10,300,1300,7.5,> 10,1900,2.6,> 10,1400,> 10,3.2,growth inhibition of PIK3CA mutant cell lines compared to PIK3CA wild type cell lines ([1]; one-tailed t-test on normalized cell counts (FIG. 3)): significantly stronger; IC50 [21]: > 10 µM; IC50 [22]: > 10 µM; IC50 [23]: 3.2 µM; IC50 [24]: 1100 nM
"NC1(c2ccc(-c3nc4ccn5c(=O)[nH]nc5c4cc3-c3ccccc3)cc2)CCC1 [COMPOUND B, 8-[4-(1-Aminocyclobutyl)phenyl]-9-phenyl-1,2,4-triazolo[3,4-f][1,6]naphthyridin-3(2H)-one, reference compound]",micromolar,> 10,> 10,3000,> 10,> 10,5.1,6.4,5.4,> 10,600,1500,0.1,> 10,3800,3.9,> 10,1400,> 10,> 10,IC50 [21]: > 10 µM; IC50 [22]: > 10 µM; IC50 [23]: > 10 µM; IC50 [24]: 1000 nM
